Measured values as given in patent publication US9453026B2, “ACC inhibitors and uses thereof” (Gilead Apollo, Inc., priority 2011, dated 2016).
pIC50: −log10 of the molar value.

Molecular target: ACC2 (Homo sapiens, UniProt O00763)
Assay: In vitro ACC2 inhibition assay (ADP-Glo)
Assay type: biochemical
Conditions: read-out: ACC2
Summary of the method: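 Enzyme (human ACC1 or ACC2) and compound, serially diluted 1:3 over 11 points from a 600 uM DMSO stock, were preincubated 15 min before substrate addition.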

Sequence of ACC2 (O00763 whole entry, species assumed): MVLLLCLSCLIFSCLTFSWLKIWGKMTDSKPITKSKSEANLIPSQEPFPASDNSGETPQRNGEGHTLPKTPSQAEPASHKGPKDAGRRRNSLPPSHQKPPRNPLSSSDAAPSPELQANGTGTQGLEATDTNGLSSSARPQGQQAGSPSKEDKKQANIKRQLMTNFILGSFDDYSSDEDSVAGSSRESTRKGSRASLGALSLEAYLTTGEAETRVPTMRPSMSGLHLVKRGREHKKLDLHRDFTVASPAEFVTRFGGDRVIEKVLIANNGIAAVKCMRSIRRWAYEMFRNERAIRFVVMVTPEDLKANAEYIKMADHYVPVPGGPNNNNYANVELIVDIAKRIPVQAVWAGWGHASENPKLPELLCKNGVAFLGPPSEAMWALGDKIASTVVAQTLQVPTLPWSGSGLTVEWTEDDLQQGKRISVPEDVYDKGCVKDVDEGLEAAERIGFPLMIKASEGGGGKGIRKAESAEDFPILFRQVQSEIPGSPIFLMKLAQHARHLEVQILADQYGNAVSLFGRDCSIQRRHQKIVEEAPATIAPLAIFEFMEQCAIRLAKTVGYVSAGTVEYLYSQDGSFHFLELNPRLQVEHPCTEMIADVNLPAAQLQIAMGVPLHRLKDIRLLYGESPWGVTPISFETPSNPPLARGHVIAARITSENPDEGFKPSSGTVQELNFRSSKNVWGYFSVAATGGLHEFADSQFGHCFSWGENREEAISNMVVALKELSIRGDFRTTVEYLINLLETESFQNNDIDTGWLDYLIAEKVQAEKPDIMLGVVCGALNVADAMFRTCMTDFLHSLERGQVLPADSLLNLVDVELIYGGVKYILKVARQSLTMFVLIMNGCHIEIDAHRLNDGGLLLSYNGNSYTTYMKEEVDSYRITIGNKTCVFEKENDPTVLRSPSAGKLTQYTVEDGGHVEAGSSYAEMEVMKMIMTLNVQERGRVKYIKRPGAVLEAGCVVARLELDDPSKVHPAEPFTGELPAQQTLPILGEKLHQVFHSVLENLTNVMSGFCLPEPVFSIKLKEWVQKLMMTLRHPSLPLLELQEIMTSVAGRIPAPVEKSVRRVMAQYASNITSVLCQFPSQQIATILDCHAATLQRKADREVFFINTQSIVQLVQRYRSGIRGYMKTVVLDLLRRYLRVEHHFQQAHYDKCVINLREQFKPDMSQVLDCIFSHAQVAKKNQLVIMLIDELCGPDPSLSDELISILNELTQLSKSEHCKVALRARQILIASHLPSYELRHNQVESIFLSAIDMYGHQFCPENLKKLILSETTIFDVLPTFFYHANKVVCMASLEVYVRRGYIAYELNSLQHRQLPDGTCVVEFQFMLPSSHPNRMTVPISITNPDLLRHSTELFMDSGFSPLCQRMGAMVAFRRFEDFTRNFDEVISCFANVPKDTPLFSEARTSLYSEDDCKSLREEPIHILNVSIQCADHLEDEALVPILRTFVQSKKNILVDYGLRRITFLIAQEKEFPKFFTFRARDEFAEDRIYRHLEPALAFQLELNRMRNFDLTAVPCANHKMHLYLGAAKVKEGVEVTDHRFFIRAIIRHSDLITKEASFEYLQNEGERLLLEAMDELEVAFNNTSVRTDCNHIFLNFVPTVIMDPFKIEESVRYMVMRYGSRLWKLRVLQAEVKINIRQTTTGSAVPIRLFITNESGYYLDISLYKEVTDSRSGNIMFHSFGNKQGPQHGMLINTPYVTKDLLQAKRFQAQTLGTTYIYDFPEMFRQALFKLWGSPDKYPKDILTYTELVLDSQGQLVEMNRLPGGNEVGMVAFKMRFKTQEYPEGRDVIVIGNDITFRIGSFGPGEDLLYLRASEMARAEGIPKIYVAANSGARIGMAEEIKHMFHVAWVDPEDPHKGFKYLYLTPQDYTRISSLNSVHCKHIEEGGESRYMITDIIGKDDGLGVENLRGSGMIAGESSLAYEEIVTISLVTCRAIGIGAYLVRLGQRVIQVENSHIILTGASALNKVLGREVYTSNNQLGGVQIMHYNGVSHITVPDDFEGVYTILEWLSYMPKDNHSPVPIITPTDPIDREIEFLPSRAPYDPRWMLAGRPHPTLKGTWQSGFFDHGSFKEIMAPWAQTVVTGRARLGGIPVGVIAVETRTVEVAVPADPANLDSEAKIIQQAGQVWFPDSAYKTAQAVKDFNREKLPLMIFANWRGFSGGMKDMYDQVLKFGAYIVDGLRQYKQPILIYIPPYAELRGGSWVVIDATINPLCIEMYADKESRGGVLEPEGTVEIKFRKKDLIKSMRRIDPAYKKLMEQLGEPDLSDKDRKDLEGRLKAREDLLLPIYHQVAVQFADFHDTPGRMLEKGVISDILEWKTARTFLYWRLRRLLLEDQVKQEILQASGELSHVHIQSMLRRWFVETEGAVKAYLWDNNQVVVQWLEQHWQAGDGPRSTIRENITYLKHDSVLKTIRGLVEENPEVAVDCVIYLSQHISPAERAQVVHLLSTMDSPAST

SMILES | pIC50
CCOC(=O)c1sc2c(c1C)c(=O)n(CCO)c(=O)n2CCc1nccs1 [I-49] | < 4.30
CCOC(=O)c1sc2c(c1C)c(=O)n(CCO)c(=O)n2Cc1ccc2ccccc2c1 [I-16, ethyl 3-(2-hydroxyethyl)-5-methyl-1-(naphthalen-2-ylmethyl)-2,4-dioxo-1H,2H,3H,4H-thieno[2,3-d]pyrimidine-6-carboxylate] | < 4.30
CCOC(=O)c1sc2c(c1C)c(=O)n(CCO)c(=O)n2CCc1ccc(Cl)cc1 [I-17] | < 4.30
CCOC(=O)c1sc2c(c1C)c(=O)n(CCO)c(=O)n2CCc1cccc(Cl)c1 [I-21] | < 4.30
Cc1csc2c1c(=O)n(CCO)c(=O)n2CCc1ccccc1 [I-58] | < 4.30
CNC(=O)c1sc2c(c1C)c(=O)n(CCO)c(=O)n2CCc1ccccc1 [I-27] | < 4.30
CCCOC(=O)c1sc2c(c1C)c(=O)n(CCO)c(=O)n2CCc1ccccc1 [I-41, propyl 3-(2-hydroxyethyl)-5-methyl-2,4-dioxo-1-(2-phenylethyl)-1H,2H,3H,4H-thieno[2,3-d]pyrimidine-6-carboxylate] | < 4.30
CCOC(=O)c1sc2c(c1C)c(=O)n(CS(C)(=O)=O)c(=O)n2CCc1ccccc1 [I-72] | < 4.30
CCOC(=O)c1sc2c(c1C)c(=O)n(CCO)c(=O)n2Cc1cccc2ccccc12 [I-15] | < 4.30
CCOC(=O)c1sc2c(c1C)c(=O)n(CC(=O)O)c(=O)n2CC(=O)c1ccccc1 [I-73, 2-[6-(ethoxycarbonyl)-5-methyl-2,4-dioxo-1-(2-oxo-2-phenylethyl)-1H,2H,3H,4H-thieno[2,3-d]pyrimidin-3-yl]acetic acid] | 4.30 to 4.70
COCc1sc2c(c1C)c(=O)n(CCO)c(=O)n2CCc1ccccc1 [I-39, 3-(2-hydroxyethyl)-6-(methoxymethyl)-5-methyl-1-(2-phenylethyl)-1H,2H,3H,4H-thieno[2,3-d]pyrimidine-2,4-dione] | 4.30 to 4.70
CCOC(=O)c1sc2c(c1C)c(=O)n(CC)c(=O)n2CCc1ccccc1 [I-7, ethyl 3-ethyl-5-methyl-2,4-dioxo-1-(2-phenylethyl)-1H,2H,3H,4H-thieno[2,3-d]pyrimidine-6-carboxylate] | < 4.30
CCOC(=O)c1sc2c(c1C)c(=O)n(CC(N)=O)c(=O)n2C[C@@H](OC(C)C)c1ccccc1 [I-113, ethyl 3-(carbamoylmethyl)-5-methyl-2,4-dioxo-1-[(2S)-2-phenyl-2-(propan-2-yloxy)ethyl]-1H,2H,3H,4H-thieno[2,3-d]pyrimidine-6-carboxylate] | 4.30 to 4.70
CCOC(=O)c1sc2c(c1C)c(=O)n(CCO)c(=O)n2CCc1ccc2ccccc2c1 [I-30, ethyl 3-(2-hydroxyethyl)-5-methyl-1-[2-(naphthalen-2-yl)ethyl]-2,4-dioxo-1H,2H,3H,4H-thieno[2,3-d]pyrimidine-6-carboxylate] | < 4.30
Cc1c(C(=O)OC2CCC2)sc2c1c(=O)n(CC(=O)O)c(=O)n2CCc1ccccc1 [I-86, 2-[6-(cyclobutoxycarbonyl)-5-methyl-2,4-dioxo-1-(2-phenylethyl)-1H,2H,3H,4H-thieno[2,3-d]pyrimidin-3-yl]acetic acid] | 4.70 to 5.30
CCOC(=O)c1sc2c(c1C)c(=O)n(CCO)c(=O)n2Cc1ccc2[nH]ccc2c1 [I-51, ethyl 3-(2-hydroxyethyl)-1-(1H-indol-5-ylmethyl)-5-methyl-2,4-dioxo-1H,2H,3H,4H-thieno[2,3-d]pyrimidine-6-carboxylate] | < 4.30

Now from value to molecule:

pIC50 | SMILES
> 6.00 | Cc1c(-c2ncco2)sc2c1c(=O)n(C(C)(C)C(=O)O)c(=O)n2C[C@H](O[C@@H](C)CO)c1ccccc1 [I-185, 2-[1-[(2R)-2-[[(2S)-1-hydroxypropan-2-yl]oxy]-2-phenylethyl]-5-methyl-6-(1,3-oxazol-2-yl)-2,4-dioxo-1H,2H,3H,4H-thieno[2,3-d]pyrimidin-3-yl]-2-methylpropanoic acid]
4.70 to 5.30 | CCOC(=O)c1sc2c(c1C)c(=O)n(CC(=O)O)c(=O)n2CC(OC(=O)COC)c1ccccc1 (stereo not drawn) [I-101, 2-[6-(ethoxycarbonyl)-1-[2-[(2-methoxyacetyl)oxy]-2-phenylethyl]-5-methyl-2,4-dioxo-1H,2H,3H,4H-thieno[2,3-d]pyrimidin-3-yl]acetic acid]
4.30 to 4.70 | O=C(O)Cn1c(=O)c2c3c(sc2n(CCc2ccccc2)c1=O)CCCC3 [I-3]
4.30 to 4.70 | CCOC(=O)c1sc2c(c1C)c(=O)n(C(C)(C)C(N)=O)c(=O)n2C[C@@H](OC(C)C)c1ccccc1 [I-114, ethyl 3-(1-carbamoyl-1-methylethyl)-5-methyl-2,4-dioxo-1-[(2S)-2-phenyl-2-(propan-2-yloxy)ethyl]-1H,2H,3H,4H-thieno[2,3-d]pyrimidine-6-carboxylate]
4.70 to 5.30 | CCOC(=O)c1sc2c(c1C)c(=O)n(CCCCO)c(=O)n2CCc1ccccc1 [I-34, ethyl 3-(4-hydroxybutyl)-5-methyl-2,4-dioxo-1-(2-phenylethyl)-1H,2H,3H,4H-thieno[2,3-d]pyrimidine-6-carboxylate]
4.70 to 5.30 | COCc1sc2c(c1C)c(=O)n(CC(=O)O)c(=O)n2CCc1ccccc1 [I-75, 2-[6-(methoxymethyl)-5-methyl-2,4-dioxo-1-(2-phenylethyl)-1H,2H,3H,4H-thieno[2,3-d]pyrimidin-3-yl]acetic acid]
4.30 to 4.70 | CCOC(=O)c1sc2c(c1C)c(=O)n(CCO)c(=O)n2C(C)Cc1ccccc1 (stereo not drawn) [I-36, ethyl 3-(2-hydroxyethyl)-5-methyl-2,4-dioxo-1-(1-phenylpropan-2-yl)-1H,2H,3H,4H-thieno[2,3-d]pyrimidine-6-carboxylate]
> 5.30 | CCOC(=O)c1sc2c(c1C)c(=O)n(C(C)C(=O)O)c(=O)n2CCc1ccccc1 (stereo not drawn) [I-56, 2-[6-(ethoxycarbonyl)-5-methyl-2,4-dioxo-1-(2-phenylethyl)-1H,2H,3H,4H-thieno[2,3-d]pyrimidin-3-yl]propanoic acid]
> 6.00 | Cc1c(-c2ncco2)sc2c1c(=O)n(Cc1nn[nH]n1)c(=O)n2C[C@H](OC(C)C)c1ccccc1 [I-153, 5-methyl-6-(1,3-oxazol-2-yl)-1-[(2R)-2-phenyl-2-(propan-2-yloxy)ethyl]-3-(1H-1,2,3,4-tetrazol-5-ylmethyl)-1H,2H,3H,4H-thieno[2,3-d]pyrimidine-2,4-dione]
> 5.30 | Cc1c(C(=O)OCCO)sc2c1c(=O)n(CC(=O)O)c(=O)n2CCc1ccccc1 [I-83, 2-[6-[(2-hydroxyethoxy)carbonyl]-5-methyl-2,4-dioxo-1-(2-phenylethyl)-1H,2H,3H,4H-thieno[2,3-d]pyrimidin-3-yl]acetic acid]
> 6.00 | Cc1c(-c2ncco2)sc2c1c(=O)n(C(C)(C)C(=O)O)c(=O)n2C[C@H](O[C@H]1CC[C@@](C)(O)CC1)c1ccccc1 [I-168, 2-(1-((R)-2-(((1s,4S)-4-hydroxy-4-methylcyclohexyl)oxy)-2-phenylethyl)-5-methyl-6-(oxazol-2-yl)-2,4-doxo-1,2-dihydrothieno[2,3-d]pyrimidin-3(4H)-yl)-2-methylpropanoic acid]
> 5.30 | CCOC(=O)c1sc2c(c1C)c(=O)n(CC(=O)O)c(=O)n2C[C@H](O)c1ccccc1 [I-78, 2-[6-(ethoxycarbonyl)-1-[(2R)-2-hydroxy-2-phenylethyl]-5-methyl-2,4-dioxo-1H,2H,3H,4H-thieno[2,3-d]pyrimidin-3-yl]acetic acid]
> 5.30 | Cc1c(-c2ncco2)sc2c1c(=O)n(C(C)(C)C(=O)O)c(=O)n2C[C@H](O[C@H]1CC[C@@H](N)CC1)c1ccccc1 [I-167, 2-(1-((R)-2-(((1s,4S)-4-aminocyclohexyl)oxy)-2-phenylethyl)-5-methyl-6-(oxazol-2-yl)-2,4-dioxo-1,2-dihydrothieno[2,3-d]pyrimidin-3(4H)-yl)-2-methylpropanoic acid]
> 5.30 | CCOC(=O)c1sc2c(c1C)c(=O)n(C(C)(C)C(=O)O)c(=O)n2CCc1ccccc1OC(F)(F)F [I-106, 2-[6-(ethoxycarbonyl)-5-methyl-2,4-dioxo-1-[2-[2-(trifluoromethoxy)phenyl]ethyl]-1H,2H,3H,4H-thieno[2,3-d]pyrimidin-3-yl]-2-methylpropanoic acid]
> 6.00 | CCc1ccccc1[C@@H](Cn1c(=O)n(C(C)(C)C(=O)O)c(=O)c2c(C)c(-c3ncco3)sc21)OCCO [I-263, 2-[1-[(2S)-2-(2-ethylphenyl)-2-(2-hydroxyethoxy)ethyl]-5-methyl-6-(1,3-oxazol-2-yl)-2,4-dioxo-1H,2H,3H,4H-thieno[2,3-d]pyrimidin-3-yl]-2-methylpropanoic acid]
4.70 to 5.30 | CCOC(=O)c1sc2c(c1C)c(=O)n(CC(C)O)c(=O)n2CCc1ccccc1 (stereo not drawn) [I-62, ethyl 3-(2-hydroxypropyl)-5-methyl-2,4-dioxo-1-(2-phenylethyl)-1H,2H,3H,4H-thieno[2,3-d]pyrimidine-6-carboxylate]
4.70 to 5.30 | CCOC(=O)c1sc2c(c1C)c(=O)n(CC(=O)O)c(=O)n2CCc1ccc(I)cc1 [I-53, 2-[6-(ethoxycarbonyl)-1-[2-(4-iodophenyl)ethyl]-5-methyl-2,4-dioxo-1H,2H,3H,4H-thieno[2,3-d]pyrimidin-3-yl]acetic acid]
> 6.00 | Cc1c(-c2ncco2)sc2c1c(=O)n(C(C)(C)C(=O)O)c(=O)n2C[C@H](OC1CCC(F)(F)CC1)c1ccccc1 [I-155, 2-[1-[(2R)-2-[(4,4-difluorocyclohexyl)oxy]-2-phenylethyl]-5-methyl-6-(1,3-oxazol-2-yl)-2,4-dioxo-1H,2H,3H,4H-thieno[2,3-d]pyrimidin-3-yl]-2-methylpropanoic acid]
> 5.30 | Cc1c(-c2nccs2)sc2c1c(=O)n(C(C)(C)C(=O)O)c(=O)n2C[C@H](OC(C)C)c1ccccc1 [I-141, 2-methyl-2-[5-methyl-2,4-dioxo-1-[(2R)-2-phenyl-2-(propan-2-yloxy)ethyl]-6-(1,3-thiazol-2-yl)-1H,2H,3H,4H-thieno[2,3-d]pyrimidin-3-yl]propanoic acid]
4.70 to 5.30 | CCOC(=O)c1sc2c(c1C)c(=O)n(C(C)(C)C(=O)O)c(=O)n2C[C@@H](O)c1ccccc1 [I-102, 2-[6-(ethoxycarbonyl)-1-[(2S)-2-hydroxy-2-phenylethyl]-5-methyl-2,4-dioxo-1H,2H,3H,4H-thieno[2,3-d]pyrimidin-3-yl]-2-methylpropanoic acid]
